Data taken from patent publication US4310590A (priority 1979, dated 1982).
Converted amounts (≈) assume the structure as drawn.

How the values were obtained:
Erysiphe polygoni = assay: whole plant or invertebrate; type: in vivo; conditions: read-out: Disease Control Level, BPM
Rhizopus stolonifer = assay: Serial Dilution Test (Broth Titer Test), antifungal, Rhizopus stolonifer; type: cell-based; conditions: in vitro serial dilution test; R = Rhizopus stolonifer; read-out: SDT, MIC
Description: (§1) Antibacterial and antifungal activity were evaluated by the Serial Dilution Test (Broth Titer Test) wherein a series of broths containing varying dilutions of a test compound and an organism are halved starting with 1:1,000. The values shown represent the maximum dilution in parts per million at which the compound under evaluation renders complete control of the organism. Pseudomonas aeruginosa (P), Staphylococcus aureus (S), and Escherichia coli (E) were the bacterial organisms employed in this test, and the fungi employed were Aspergillus niger (A) and Rhizopus stolonifer (R).
(§2) ^a In vitro serial dilution test (SDT), minimum inhibitory
(§3) concentrations (MIC) against E = E. coli, P = Ps. aeruginosa, S =
(§4) Staphylococcus aureus, A = A. niger, and R = Rhizopus stolonifer are give
(§5) in parts per million of a biocide.

A. niger = assay: Serial Dilution Test (Broth Titer Test), antifungal, A. niger; type: cell-based, Aspergillus niger; conditions: Aspergillus niger, in vitro serial dilution test, read-out: SDT, MIC
Description: as §1, §2, §3, §4, §5

E. coli = assay: Serial Dilution Test (Broth Titer Test), antibacterial, E. coli; type: cell-based, Escherichia coli; conditions: Escherichia coli, read-out: SDT, MIC
Description: as §1, §2, §3, §4, §5

Piricularia oryzae = assay: whole plant or invertebrate; type: in vivo
Botrytis cinerea = assay: whole plant or invertebrate; type: in vivo; conditions: Botrytis cinerea; 300 ppm; read-out: Disease Control Level, BOT
Plasmopora viticola = assay: whole plant or invertebrate; type: in vivo; conditions: 300 ppm; read-out: Disease Control Level, GDM
Helminthosporium teres = assay: whole plant or invertebrate; type: in vivo; conditions: Pyrenophora teres, in Hordeum vulgare; 300 ppm; read-out: Disease Control Level, BH
[1] = system: Puccinia graminis f. sp. tritici; assay: whole plant or invertebrate; type: in vivo, Puccinia graminis f. sp. tritici race 15B-2; conditions: Puccinia graminis, read-out: Disease Control Level, WSR
Staphylococcus aureus = assay: Serial Dilution Test (Broth Titer Test), antibacterial, Staphylococcus aureus; type: cell-based; conditions: Staphylococcus aureus, read-out: SDT, MIC
Description: as §1, §2, §3, §4, §5

Phytophthora infestans = assay: whole plant or invertebrate; type: in vivo; conditions: Phytophthora infestans, in Solanum lycopersicum, read-out: Disease Control Level, TLB
Ps. aeruginosa = assay: Serial Dilution Test (Broth Titer Test), antibacterial, Ps. aeruginosa; type: cell-based, Pseudomonas aeruginosa; conditions: Pseudomonas aeruginosa, read-out: SDT, MIC
Description: as §1, §2, §3, §4, §5

[2] = Pyricularia oryzae, read-out: Disease Control Level, RB

O=c1cc(N2CCCCC2)sn1CCc1ccccc1 [Example 14, 5-Piperidino-2-phenethyl-4-isothiazolin-3-one]
pest or weed control at 300 ppm (Erysiphe polygoni): 50%
MIC (Rhizopus stolonifer): 125 µg/mL (≈ 433 µM)
MIC (A. niger): 250 µg/mL (≈ 867 µM)
MIC (E. coli): 500 µg/mL (≈ 1730 µM)
Disease Control Level, RB (Piricularia oryzae; 150 ppm): A/E
pest or weed control at 38 ppm (Piricularia oryzae; [2]): 50%
pest or weed control at 75 ppm (Piricularia oryzae; [2]): 97 to 100%
pest or weed control at 300 ppm (Piricularia oryzae; [2]): 97 to 100%
pest or weed control at 300 ppm (Botrytis cinerea): 50%
pest or weed control at 300 ppm (Plasmopora viticola): 50%
pest or weed control at 300 ppm (Helminthosporium teres): 50%
pest or weed control at 38 ppm [1]: 50%
pest or weed control at 75 ppm [1]: 50%
pest or weed control at 150 ppm [1]: 50%
pest or weed control at 300 ppm [1]: 97 to 100%
MIC (Staphylococcus aureus): 500 µg/mL (≈ 1730 µM)
pest or weed control at 300 ppm (Phytophthora infestans): 50%
MIC (Ps. aeruginosa): 500 µg/mL (≈ 1730 µM)
